Test results: ChEMBL document CHEMBL1153128, “Synthesis of a hydrolytically stable, fluorescent-labeled ATP analog as a tool for probing adenylyl cyclases” (Bioorg Med Chem Lett, 2010)
pKi: −log10 of the molar value.

Biological target: T1, Calmodulin-sensitive adenylate cyclase (Bacillus anthracis, UniProt P40136)
T1 sequence (P40136 whole entry): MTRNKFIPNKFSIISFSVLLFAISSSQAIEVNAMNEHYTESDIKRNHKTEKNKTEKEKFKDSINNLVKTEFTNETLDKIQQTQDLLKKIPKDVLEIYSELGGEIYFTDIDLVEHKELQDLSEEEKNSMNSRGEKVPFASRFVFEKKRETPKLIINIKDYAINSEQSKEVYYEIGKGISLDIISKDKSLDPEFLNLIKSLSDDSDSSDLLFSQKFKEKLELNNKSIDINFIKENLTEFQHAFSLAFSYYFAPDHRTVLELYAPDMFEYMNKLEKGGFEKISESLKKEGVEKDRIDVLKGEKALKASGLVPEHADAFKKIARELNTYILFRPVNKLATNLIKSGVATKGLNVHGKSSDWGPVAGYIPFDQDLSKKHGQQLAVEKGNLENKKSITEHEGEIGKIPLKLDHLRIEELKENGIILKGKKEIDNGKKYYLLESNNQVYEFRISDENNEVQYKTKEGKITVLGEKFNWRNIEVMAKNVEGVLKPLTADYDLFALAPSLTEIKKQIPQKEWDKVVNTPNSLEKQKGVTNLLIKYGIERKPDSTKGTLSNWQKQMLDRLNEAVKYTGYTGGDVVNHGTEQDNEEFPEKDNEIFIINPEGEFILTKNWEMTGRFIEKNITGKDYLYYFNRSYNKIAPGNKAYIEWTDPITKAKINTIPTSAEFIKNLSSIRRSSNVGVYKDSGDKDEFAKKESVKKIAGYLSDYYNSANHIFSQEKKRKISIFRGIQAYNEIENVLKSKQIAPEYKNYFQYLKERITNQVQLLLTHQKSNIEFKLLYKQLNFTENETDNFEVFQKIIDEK
Assay: Inhibition of Bacillus anthracis edema factor catalytic domain by radiometric assay

Q: `CNc1ccccc1C(=O)O[C@H]1[C@@H](O)[C@H](n2cnc3c(N)ncnc32)O[C@@H]1CO[P@@](=O)(O)O[P@](=O)(O)OP(=O)(O)O` was tested. Which pKi did it give?
A: 6.01

Q: How did the pKi turn out when `CNc1ccccc1C(=O)O[C@@H]1[C@H](O)[C@@H](COP(=O)(O)OP(=O)(O)OP(=O)(O)O)O[C@H]1n1ccc(N)nc1=O` was run?
A: 7.00

Q: How did the pKi turn out when `CNc1ccccc1C(=O)N[C@@H]1[C@H](O)[C@@H](COP(=O)(O)OP(=O)(O)C(Cl)(Cl)P(=O)(O)O)O[C@H]1n1cnc2c(N)ncnc21` was run?
A: 5.05
